Source: paper PMC11943097, “Phytochemical Characterization and Anticancer Activity of Clerodendrum chinense Leaf Extract Against Breast and Cervical Cancer Cells” (International Journal of Molecular Sciences, 2025)
≈ marks a conversion by molar mass, not a printed value. Like-named read-outs stand apart in the source and are kept apart here.

What was measured:
Type in all cases: cell-based
MCF-7 cells = assay: MTT cell viability assay, MCF-7 cells; details: Homo sapiens
Experimental: (§1) MCF-7, HeLa, and RAW264.7 cells were cultured in DMEM supplemented with 10% FBS and 1% penicillin/streptomycin. Cell culture was maintained at 37 °C in a 5% CO2 incubator.
(§2) The assessment of cell viability was performed using an MTT assay to assess the cytotoxic effects of CCL on MCF-7, Hela, and RAW264.7 cells. Initially, MCF-7, HeLa, and RAW264.7 cells were seeded onto 96-well plates at a density of 2 × 10^4 cells/mL. Following a 24-h incubation period, the culture medium was replaced with a serum-free medium containing specified concentrations of CCL, verbascoside, isoverbascoside, and hispidulin ranging from 12.5 to 1000 µg/mL. Following 24, 48, and 72 h of treatment, an MTT solution (0.5 mg/mL in culture medium) was added to each well and incubated at 37 °C for 2 h. The metabolically active cells converted MTT into formazan crystals, which were then dissolved in 100 µL of DMSO per well. Absorbance was recorded at 550 nm using a SpectraMax 3 microplate reader (Molecular Devices, San Jose, CA, USA). The IC50 values were determined using GraphPad Prism v.7.0 (La Jolla, CA, USA). Cell viability was assessed in comparison to untreated control cells using the following equation: Cell viability %=A550sample/A550control×100%

HeLa cells = assay: MTT cell viability assay, HeLa cells; details: Homo sapiens
Experimental: as §1, §2

RAW 264.7 macrophages = assay: MTT cell viability assay, RAW264.7 cells; details: Mus musculus
Experimental: as §1, §2

Compound	IC50 (MCF-7 cells; MCF7, 24 h) [µg/mL]	IC50 (MCF-7 cells; MCF7, 48 h) [µg/mL]	IC50 (MCF-7 cells; MCF7, 72 h) [µg/mL]	IC50 (HeLa cells; 24 h) [µg/mL]	IC50 (HeLa cells; 48 h) [µg/mL]	IC50 (HeLa cells; 72 h) [µg/mL]	IC50 (RAW 264.7 macrophages; RAW264.7, 24 h) [µg/mL]	IC50 (RAW 264.7 macrophages; RAW264.7, 48 h) [µg/mL]	IC50 (RAW 264.7 macrophages; RAW264.7, 72 h) [µg/mL]	IC50 (MCF-7 cells; MCF7, MCF-7, 24 h, MTT, read-out: IC50) [µg/mL]	IC50 (MCF-7 cells; MCF7, MCF-7, 48 h, MTT, read-out: IC50) [µg/mL]	IC50 (MCF-7 cells; MCF7, MCF-7, 72 h, MTT, read-out: IC50) [µg/mL]	IC50 (HeLa cells; 24 h, MTT, read-out: IC50) [µg/mL]	IC50 (HeLa cells; 48 h, MTT, read-out: IC50) [µg/mL]	IC50 (HeLa cells; 72 h, MTT, read-out: IC50) [µg/mL]	IC50 (RAW 264.7 macrophages; RAW264.7, RAW 264.7, 24 h, MTT, read-out: IC50) [µg/mL]	IC50 (RAW 264.7 macrophages; RAW264.7, RAW 264.7, 48 h, MTT, read-out: IC50) [µg/mL]	IC50 (RAW 264.7 macrophages; RAW264.7, RAW 264.7, 72 h, MTT, read-out: IC50) [µg/mL]
COc1c(O)cc2oc(-c3ccc(O)cc3)cc(=O)c2c1O [Hispidulin]	905 (≈ 3010 µM)	710 (≈ 2370 µM)	527 (≈ 1760 µM)	98.2 (≈ 327 µM)	119 (≈ 397 µM)	311 (≈ 1040 µM)	99.2 (≈ 330 µM)	120 (≈ 401 µM)	180 (≈ 600 µM)	–	–	–	–	–	–	–	–	–
C[C@@H]1O[C@@H](O[C@@H]2[C@@H](O)[C@H](OCCc3ccc(O)c(O)c3)O[C@H](CO)[C@H]2OC(=O)/C=C/c2ccc(O)c(O)c2)[C@H](O)[C@H](O)[C@H]1O [Verbascoside]	–	–	–	–	–	–	–	–	–	186 (≈ 297 µM)	184 (≈ 294 µM)	173 (≈ 277 µM)	373 (≈ 597 µM)	291 (≈ 466 µM)	342 (≈ 547 µM)	432 (≈ 691 µM)	446 (≈ 714 µM)	480 (≈ 769 µM)
